Test results as given in patent US20200289554A1, “BIOORTHOGONAL COMPOUNDS COMPRISING A PROPARGYL GROUP FOR TREATING CANCER” (THE UNIVERSITY COURT OF THE UNIVERSITY OF EDINBURGH, priority 2016, published 2020).
Read-outs that look alike come from different tables or passages of the source.

Legend:
T98 cells = assay: Prodrug safety dose-response cell viability (PrestoBlue), T98; assay type: cell-based; conditions: Homo sapiens, 120 h, 5 days, no catalyst
Protocol: (§1) These cell lines were selected as these are primary malignancies against which the parental drugs are currently prescribed.
(§2) The toxicities of each active agent and prodrugs were compared by performing dose-response studies. […] Cell viability was analysed by fluoresce intensity (λex=540 nm; λem=590 nm) after 60-90 min incubation with PrestoBlue™ Reagent (Life Technologies).

A549 cells [1] = assay: BOOM conversion: prodrug + metal resins in cell culture, cell viability, A549; assay type: cell-based, human; conditions: Pd0-resin 1 mg/mL, 100 μM Vorinostat prodrugs, 1 μM Doxorubicin prodrugs, 0.3 μM Panobinostat prodrug
Protocol: Cell viabilities for each prodrug provided as a combination with palladium is presented in FIG. 3 and gold is presented in FIG. 33 in the right of each set of two bars. […] Cells were incubated in tissue culture media containing 0.1% (v/v) DMSO and: Pd^0, Au, or Pd/Au-resins (1 mg/mL, negative control); 100 μM of each prodrug (negative control); and Pd^0, Au, or Pd/Au-resins (1 mg/mL)+100 μM of each prodrug (BOOM reaction assay). Cells incubated in 0.1% (v/v) DMSO in media were used as untreated cell control.
Following 5 days treatment, cells were incubated with PrestoBlue™ Cell Viability Reagent (Life Technologies) for 60-90 min. Fluorescence intensity values were related to the untreated cells (100% cell viability). […] Cells incubated in 0.1% (v/v) DMSO in media were used as untreated cell control.
(§3) Cell viabilities for each prodrug provided as a combination with palladium is presented in FIG. 7 in the right of each set of two bars. Data for prodrug in the absence of palladium catalyst is also provided (the left bar of each set of two bars) for comparison along with negative controls (from left to right: DMSO, Pd^0 and Doxorubicin). Cells were incubated in tissue culture media containing 0.1% (v/v) DMSO and: Pd^0-resins (1 mg/mL, negative control); 1 μM of each prodrug (negative control); and Pd^0-resins (1 mg/mL)+1 μM of each prodrug (BOOM reaction assay). Cells incubated in 0.1% (v/v) DMSO in media were used as untreated cell control.
Following 5 days treatment, cells were incubated with PrestoBlue™ Cell Viability Reagent (Life Technologies) for 90 min. Fluorescence intensity values were related to the untreated cells (100% cell viability). Data are provided in FIG. 8 for cells incubated in tissue culture media containing 0.1% (v/v) DMSO and: Pd^0-resins (1 mg/mL, negative control); 0.3-3 μM of Doxorubicin prodrug for A549 and DU145 cell lines, 0.1-1 μM of Doxorubicin prodrug for T98 cell line (negative control); 0.3-3 μM of Doxorubicin for A549 and DU145 cell lines, 0.1-1 μM of Doxorubicin for T98 cell line (positive control); and Pd^0-resin (1 mg/mL)+Doxorubicin prodrug (BOOM reaction assay). Cells incubated in 0.1% (v/v) DMSO in media were used as untreated cell control.
as §3, with “21” for “7”, “panobinostat).” for “Doxorubicin).”
The toxigenic effect as a result of in situ generation of parental drug in cell culture was determined by incubating all cells in tissue culture media containing 0.1% (v/v) DMSO and a) Pd^0, Au, or Pd/Au-resin (1 mg/mL for all cells tested, negative control); b) prodrug (negative control); or c) Pd^0, Au, or Pd/Au-resin (1 mg/mL for all cells)+prodrug (reaction assay). Cells incubated in 0.1% (v/v) DMSO in media was used as an untreated cell reference standard (100% viability). A PrestoBlue® cell viability assay as described above was carried out and fluorescent intensities compared to the untreated cell control.
A dose response study was performed for each cell line keeping the quantity of Pd^0 resin constant (0.8 mg/mL for U87G and 1 mg/mL for the rest of cell lines). All cells were plated in Dulbecco's Modified Eagle Media (DMEM) supplemented with serum (10% FBS) and L-glutamine (2 mM). […]

U87G cells = assay: Prodrug safety dose-response cell viability (PrestoBlue), U87G; assay type: cell-based, human; conditions: U87G cells, 5 days, no catalyst, read-out: EC50 (cell viability)
Protocol: as §1, §2

A549 cells [2] = assay: Prodrug safety dose-response cell viability (PrestoBlue), A549; assay type: cell-based; conditions: Homo sapiens, 120 h, 5 days, no catalyst
Protocol: as §1, §2

| Structure (SMILES) | EC50 (T98 cells) | toxigenic effect of prodrug + Pd0 resins (A549 cells [1]) | EC50 (U87G cells; Homo sapiens, 120 h) | EC50 (A549 cells [2]) | EC50 (U87G cells) |
| --- | --- | --- | --- | --- | --- |
| O=C(CCCCCCC(=O)Nc1ccccc1)NOCc1ccccc1 [Benzyl-Vor, Benzyl-Vorinostat] | > 500 µM | only low levels of toxicity | > 500 µM | > 500 µM | – |
| COc1cc([C@@H]2c3cc4c(cc3[C@@H](O[C@@H]3O[C@@H]5CO[C@@H](C)O[C@H]5[C@H](O)[C@H]3O)[C@H]3COC(=O)[C@H]23)OCO4)cc(OC)c1O [Etoposide, reference compound] | – | – | 4.97 µM | – | – |
| C#CCOc1ccc(CONC(=O)/C=C/c2ccc(CNCCc3c(C)[nH]c4ccccc34)cc2)cc1 [POB-Panob, Propargyloxybenzyl-Panobinostat] | – | strong toxigenic effect | – | 0.758 µM | – |
| Cc1[nH]c2ccccc2c1CCNCc1ccc(/C=C/C(=O)NO)cc1 [Panobinostat, reference compound] | – | – | – | 0.016 µM | – |
| CCc1c2c(nc3ccc(O)cc13)-c1cc3c(c(=O)n1C2)COC(=O)[C@]3(O)CC [SN-38, 10-Hydroxy-7-ethylcamptothecin, reference compound] | – | – | – | – | 0.0246 µM |
| O=C(CCCCCCC(=O)Nc1ccccc1)NO [Vorinostat, reference compound] | 12.4 µM | – | – | 4.85 µM | – |
